This note sets out measurements from publication PMC4660985 (Biochemistry, 2015).

One data set deals with CYP125A3 (Mycolicibacterium smegmatis, UniProt A0R4Y3). The data set is described as follows: UV-vis spectral titration. Type of data set: binding.
For data set [1], the target named is T1, CYP125A4 (Mycolicibacterium smegmatis, UniProt A0QY38).
T1 sequence (A0QY38 1-430): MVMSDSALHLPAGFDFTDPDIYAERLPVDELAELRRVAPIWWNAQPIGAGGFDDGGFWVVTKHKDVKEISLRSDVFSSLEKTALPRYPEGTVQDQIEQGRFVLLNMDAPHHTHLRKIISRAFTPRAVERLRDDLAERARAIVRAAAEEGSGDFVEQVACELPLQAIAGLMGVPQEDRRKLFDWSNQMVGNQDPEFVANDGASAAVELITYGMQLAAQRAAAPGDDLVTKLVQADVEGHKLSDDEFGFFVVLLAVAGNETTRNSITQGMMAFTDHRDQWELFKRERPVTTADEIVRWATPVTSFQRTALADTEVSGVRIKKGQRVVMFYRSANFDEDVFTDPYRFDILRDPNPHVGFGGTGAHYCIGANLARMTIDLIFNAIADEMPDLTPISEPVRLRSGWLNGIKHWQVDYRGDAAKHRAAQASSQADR
The data set is described as follows: UV-vis spectral titration. Type of data set: binding.

Data set [2] addresses T1, CYP125A4. As to the kind of experiment: UV-vis partial type I spectral shift. Type of data set: binding.
Data set [3] concerns CC(C)CCC[C@@H](C)[C@H]1CC[C@H]2[C@@H]3CCC4=CC(=O)CC[C@]4(C)[C@H]3CC[C@]12C. The data set is described as follows: steady-state turnover of purified enzyme, HPLC. The note with it: heme. Type of data set: biochemical, Mycolicibacterium smegmatis.
The test system of data set [4] is CC(C)CCC[C@@H](C)[C@H]1CC[C@H]2[C@@H]3[C@H](O)CC4=CC(=O)CC[C@]4(C)[C@H]3CC[C@]12C. As to the kind of experiment: steady-state turnover of purified enzyme, HPLC. Type of data set: biochemical, Mycolicibacterium smegmatis. Conditions: heme.

Chain of CYP125A3 (A0R4Y3 whole entry): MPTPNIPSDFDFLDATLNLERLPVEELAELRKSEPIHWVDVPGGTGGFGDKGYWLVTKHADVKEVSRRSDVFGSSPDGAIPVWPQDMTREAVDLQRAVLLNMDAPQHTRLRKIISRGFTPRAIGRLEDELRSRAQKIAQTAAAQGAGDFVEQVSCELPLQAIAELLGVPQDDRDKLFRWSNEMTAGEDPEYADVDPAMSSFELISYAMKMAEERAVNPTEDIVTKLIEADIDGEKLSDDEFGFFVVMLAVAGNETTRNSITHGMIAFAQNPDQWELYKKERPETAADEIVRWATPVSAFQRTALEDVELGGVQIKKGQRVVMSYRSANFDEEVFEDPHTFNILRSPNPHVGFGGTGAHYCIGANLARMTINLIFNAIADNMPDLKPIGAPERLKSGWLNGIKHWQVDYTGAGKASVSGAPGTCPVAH

As for `CC(C)CCC[C@@H](C)[C@H]1CC[C@H]2[C@@H]3[C@H](O)C=C4C[C@@H](O)CC[C@]4(C)[C@H]3CC[C@]12C` [7α-hydroxycholesterol], the Kd (commonly a measure of binding affinity in units of concentration) on CYP125A3 was found to be 32.9 ± 4.7 µM; at CYP125A4 [1] it was 8.7 ± 0.5 µM.

Take `CC(C)CCC[C@@H](C)[C@H]1CC[C@H]2[C@@H]3CC=C4C[C@@H](O)CC[C@]4(C)[C@H]3CC[C@]12C` [cholesterol]: the “UV-vis partial type I spectral shift; C-26 oxidation by HPLC” value on CYP125A4 [2] was “Addition of cholesterol or 4-cholesten-3-one did induce a partial shift to the type I high-spin species”.

Turning to “CYP125A3 W83Y (Mycolicibacterium smegmatis MC2 155; W83Y)”, the Km – broadly, the concentration of substrate that gives half-maximal velocity – in data set [3] worked out at 24.1 ± 7.8 µM.

On to “CYP125A4 Y87W (Mycolicibacterium smegmatis MC2 155; Y87W)”, for which the Km in data set [4] amounted to 5.1 ± 1.3 µM.
